Measured values from patent US20250206732A1, “COMPOUNDS AND METHODS FOR THE TARGETED DEGRADATION OF KRAS” (Arvinas Operations, Inc., priority 2022, published 2025).

Biological target: T1, AsPC-1 HiBiT-KRASG12D (Homo sapiens, UniProt P01116, G12D)
T1 construct: insert the HiBiT tag onto the N-terminus of one or more of the endogenous KRAS alleles; endogenous in cells; host or cells: AsPC-1 (ATCC CRL-1682), CRISPR-Cas9 knock-in clone, one tagged allele
Assay: HiBiT degradation assay (G12D), AsPC-1 HiBiT-KRASG12D cells
Assay type: cell-based
Conditions: 24 hours treatment; for Dmax: ASPC1, AsPC-1 HiBiT-KRASG12D cells; for DC50: HiBiT luminescence
Procedure, shortened: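 HiBiT-KRAS abundance was read as Nano-Glo HiBiT lytic luminescence (45 min, room temperature) after a PBS wash. Before that, a 4 h alamar blue fluorescence read, normalized to DMSO, monitored viability. Treatment lasted 24 hours at 37 °C, in triplicate, using AsPC-1 cells with endogenous N-terminally HiBiT-tagged KRAS G12D.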

T1 sequence (P01116 1-188 isoform P01116-2 G12D): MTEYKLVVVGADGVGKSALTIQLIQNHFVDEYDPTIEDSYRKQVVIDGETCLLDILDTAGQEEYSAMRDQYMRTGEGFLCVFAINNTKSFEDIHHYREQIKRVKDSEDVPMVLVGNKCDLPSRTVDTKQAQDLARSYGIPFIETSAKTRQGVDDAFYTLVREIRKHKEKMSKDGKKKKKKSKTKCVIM

Row | Compound | Dmax (maximum degradation observed) [%] | DC50 (AsPC-1 HiBiT-KRASG12D cells) [nM] | AsPC-1 HiBiT-KRASG12D DMax (AsPC-1 HiBiT-KRASG12D cells, maximum degradation observed)
1 | CCc1cccc2cc(O)cc(-c3ncc4c(N5CC6CCC(C5)N6)nc(OCCN5CCC(F)(CN6CCN(c7cc([C@@H](C(=O)N8C[C@H](O)C[C@H]8C(=O)N[C@@H](C)c8ccc(-c9scnc9C)cc8)C(C)C)on7)[C@H](C)C6)CC5)nc4c3F)c12 [Compound 224, (2S,4R)-1-[(2S)-2-{3-[(2R)-4-[(1-{2-[(4-{3,8-diazabicyclo[3.2.1]octan-3-yl}-7-(8-ethyl-3-hydroxynaphthalen-1-yl)-8-fluoropyrido[4,3-d]pyrimidin-2-yl)oxy]ethyl}-4-fluoropiperidin-4-yl)methyl]-2-methylpiperazin-1-yl]-1,2-oxazol-5-yl}-3-methylbutanoyl]-4-hydroxy-N-[(1S)-1-[4-(4-methyl-1,3-thiazol-5-yl)phenyl]ethyl]pyrrolidine-2-carboxamide] | 20 to 60 | 600 to 1000 | –
2 | CCc1cccc2cccc(-c3ncc4c(N5CC6CCC(C5)N6)nc(OC[C@]56CCCN5[C@H](COC(=O)N5CC(Oc7cc([C@H](C(=O)N8C[C@H](O)C[C@H]8C(=O)N[C@@H](C)c8ccc(-c9scnc9C)cc8)C(C)C)on7)C5)CC6)nc4c3F)c12 [Compound 225] | 80 to 100 | < 600 | –
3 | CCc1cccc2cccc(-c3ncc4c(N5CC6CCC(C5)N6C(=O)OC(C)(C)C)nc(OC[C@]56CCCN5[C@H](COC(=O)N5CCN(c7cc([C@H](C(=O)N8C[C@H](O)C[C@H]8C(=O)N[C@@H](C)c8ccc(-c9scnc9C)cc8)C(C)C)on7)[C@H](C)C5)CC6)nc4c3F)c12 [Compound 226, tert-butyl 3-[7-(8-ethyl-1-naphthyl)-8-fluoro-2-[[(3S,8R)-3-[[(3R)-4-[5-[(1R)-1-[(2S,4R)-4-hydroxy-2-[[(1S)-1-[4-(4-methylthiazol-5-yl)phenyl]ethyl]carbamoyl]pyrrolidine-1-carbonyl]-2-methyl-propyl]isoxazol-3-yl]-3-methyl-piperazine-1-carbonyl]oxymethyl]-1,2,3,5,6,7-hexahydropyrrolizin-8-yl]methoxy]pyrido[4,3-d]pyrimidin-4-yl]-3,8-diazabicyclo[3.2.1]octane-8-carboxylate] | – | < 600 | A (80% < A ≤ 100%)
4 | CCc1cccc2cc(O)cc(-c3ncc4c(N5CCCCCC5)nc(OC[C@]56CCCN5[C@H](COC(=O)N5CCN(c7cc([C@H](C(=O)N8C[C@H](O)C[C@H]8C(=O)N[C@@H](C)c8ccc(-c9scnc9C)cc8)C(C)C)on7)[C@H](C)C5)CC6)nc4c3F)c12 [Compound 227, [(3S,8R)-8-[[4-(azepan-1-yl)-7-(8-ethyl-3-hydroxy-1-naphthyl)-8-fluoro-pyrido[4,3-d]pyrimidin-2-yl]oxymethyl]-1,2,3,5,6,7-hexahydropyrrolizin-3-yl]methyl (3R)-4-[5-[(1R)-1-[(2S,4R)-4-hydroxy-2-[[(1S)-1-[4-(4-methylthiazol-5-yl)phenyl]ethyl]carbamoyl]pyrrolidine-1-carbonyl]-2-methyl-propyl]isoxazol-3-yl]-3-methyl-piperazine-1-carboxylate] | 80 to 100 | < 600 | –
5 | CCc1cccc2cc(O)cc(-c3ncc4c(N5CC6CCC(C5)N6)nc(OCCN5CCC[C@@H](CN6CCN(c7cc([C@H](C(=O)N8C[C@H](O)C[C@H]8C(=O)N[C@@H](C)c8ccc(-c9scnc9C)cc8)C(C)C)on7)CC6)C5)nc4c3F)c12 [Compound 228] | 80 to 100 | < 600 | –
6 | CCc1cccc2cc(O)cc(-c3ncc4c(N5CCCCCC5)nc(OC[C@@]56CCCN5[C@H](COC(=O)N5CCN(c7cc([C@H](C(=O)N8C[C@H](O)C[C@H]8C(=O)N[C@@H](C)c8ccc(-c9scnc9C)cc8)C(C)C)on7)[C@H](C)C5)CC6)nc4c3F)c12 [Compound 229, [(3S,8S)-8-[[4-(azepan-1-yl)-7-(8-ethyl-3-hydroxy-1-naphthyl)-8-fluoro-pyrido[4,3-d]pyrimidin-2-yl]oxymethyl]-1,2,3,5,6,7-hexahydropyrrolizin-3-yl]methyl (3R)-4-[5-[(1R)-1-[(2S,4R)-4-hydroxy-2-[[(1S)-1-[4-(4-methylthiazol-5-yl)phenyl]ethyl]carbamoyl]pyrrolidine-1-carbonyl]-2-methyl-propyl]isoxazol-3-yl]-3-methyl-piperazine-1-carboxylate] | 80 to 100 | < 600 | –
7 | CCc1cccc2cc(O)cc(-c3ncc4c(N5CCCCCC5)nc(OC[C@@H]5CC[C@@H](COC(=O)N6CCN(c7cc([C@H](C(=O)N8C[C@H](O)C[C@H]8C(=O)N[C@@H](C)c8ccc(-c9scnc9C)cc8)C(C)C)on7)[C@H](C)C6)N5C)nc4c3F)c12 [Compound 230, [(2S,5S)-5-[[4-(azepan-1-yl)-7-(8-ethyl-3-hydroxy-1-naphthyl)-8-fluoro-pyrido[4,3-d]pyrimidin-2-yl]oxymethyl]-1-methyl-pyrrolidin-2-yl]methyl (3R)-4-[5-[(1R)-1-[(2S,4R)-4-hydroxy-2-[[(1S)-1-[4-(4-methylthiazol-5-yl)phenyl]ethyl]carbamoyl]pyrrolidine-1-carbonyl]-2-methyl-propyl]isoxazol-3-yl]-3-methyl-piperazine-1-carboxylate] | 60 to 80 | < 600 | –
8 | CCc1cccc2cc(O)cc(-c3ncc4c(N5CC6CCC(C5)N6)nc(OCCN5CCC6(CC5)CC(Oc5cc([C@H](C(=O)N7C[C@H](O)C[C@H]7C(=O)N[C@@H](C)c7ccc(-c8scnc8C)cc7)C(C)C)on5)C6)nc4c3F)c12 [Compound 231] | 80 to 100 | < 600 | –
9 | CCc1cccc2cc(O)cc(-c3ncc4c(N5CC6CCC(C5)N6)nc(OCCN5CCC6(CC5)CC(Oc5cc([C@@H](C(=O)N7C[C@H](O)C[C@H]7C(=O)N[C@@H](C)c7ccc(-c8scnc8C)cc7)C(C)C)on5)C6)nc4c3F)c12 [Compound 232] | 20 to 60 | 1000 to 3000 | –
10 | CCc1cccc2cc(O)cc(-c3ncc4c(N5CC6CCC(C5)N6)nc(OCCN5CC(CC6CCN(c7cc([C@H](C(=O)N8C[C@H](O)C[C@H]8C(=O)N[C@@H](C)c8ccc(-c9scnc9C)cc8)C(C)C)on7)CC6)C5)nc4c3F)c12 [Compound 233] | 80 to 100 | < 600 | –
11 | CCc1cccc2cc(O)cc(-c3ncc4c(N5CC6CCC(C5)N6)nc(OCCN5CC(CC6CCN(c7cc([C@@H](C(=O)N8C[C@H](O)C[C@H]8C(=O)N[C@@H](C)c8ccc(-c9scnc9C)cc8)C(C)C)on7)CC6)C5)nc4c3F)c12 [Compound 234, (2S,4R)-1-[(2S)-2-(3-{4-[(1-{2-[(4-{3,8-diazabicyclo[3.2.1]octan-3-yl}-7-(8-ethyl-3-hydroxynaphthalen-1-yl)-8-fluoropyrido[4,3-d]pyrimidin-2-yl)oxy]ethyl}azetidin-3-yl)methyl]piperidin-1-yl}-1,2-oxazol-5-yl)-3-methylbutanoyl]-4-hydroxy-N-[(1S)-1-[4-(4-methyl-1,3-thiazol-5-yl)phenyl]ethyl] pyrrolidine-2-carboxamide] | 20 to 60 | 1000 to 3000 | –
12 | CCc1cccc2cc(O)cc(-c3ncc4c(N5CC6CCC(C5)N6)nc(OCCN5CCC(CN6CC7(C6)CN(c6cc([C@H](C(=O)N8C[C@H](O)C[C@H]8C(=O)N[C@@H](C)c8ccc(-c9scnc9C)cc8)C(C)C)on6)C7)CC5)nc4c3F)c12 [Compound 235, (2S,4R)-1-[(2R)-2-[3-[6-[1-[2-[[4-(3,8-diazabicyclo[3.2.1]octan-3-yl)-7-(8-ethyl-3-hydroxy-1-naphthyl)-8-fluoro-pyrido[4,3-d]pyrimidin-2-yl]oxyethyl]-4-piperidyl]methyl]-2,6-diazaspiro[3.3]heptan-2-yl]isoxazol-5-yl]-3-methyl-butanoyl]-4-hydroxy-N-[(1S)-1-[4-(4-methylthiazol-5-yl)phenyl]ethyl]pyrrolidine-2-carboxamide] | 80 to 100 | < 600 | –
13 | CCc1cccc2cc(O)cc(-c3ncc4c(N5CC6CCC(C5)N6)nc(OCCN5CCC(CN6CC7(C6)CN(c6cc([C@@H](C(=O)N8C[C@H](O)C[C@H]8C(=O)N[C@@H](C)c8ccc(-c9scnc9C)cc8)C(C)C)on6)C7)CC5)nc4c3F)c12 [Compound 236] | – | > 3000 | –
14 | CCc1cccc2cc(O)cc(-c3ncc4c(N5CC6CCC(C5)N6)nc(OCCN5CCC(C)(CCOc6cc([C@H](C(=O)N7C[C@H](O)C[C@H]7C(=O)N[C@@H](C)c7ccc(-c8scnc8C)cc7)C(C)C)on6)CC5)nc4c3F)c12 [Compound 237] | – | > 3000 | –
15 | CCc1cccc2cc(O)cc(-c3ncc4c(N5CC6CCC(C5)N6)nc(OCCN5CCC(C)(CCOc6cc([C@@H](C(=O)N7C[C@H](O)C[C@H]7C(=O)N[C@@H](C)c7ccc(-c8scnc8C)cc7)C(C)C)on6)CC5)nc4c3F)c12 [Compound 238] | 80 to 100 | < 600 | –
16 | CCc1cccc2cc(O)cc(-c3ncc4c(N5CC6CCC(C5)N6)nc(OCCN5CCC(F)(CC6CCN(c7cc([C@H](C(=O)N8C[C@H](O)C[C@H]8C(=O)N[C@@H](C)c8ccc(-c9scnc9C)cc8)C(C)C)on7)CC6)CC5)nc4c3F)c12 [Compound 239] | 80 to 100 | < 600 | –
17 | CCc1cccc2cc(O)cc(-c3ncc4c(N5CC6CCC(C5)N6)nc(OCCN5CCC(F)(CC6CCN(c7cc([C@@H](C(=O)N8C[C@H](O)C[C@H]8C(=O)N[C@@H](C)c8ccc(-c9scnc9C)cc8)C(C)C)on7)CC6)CC5)nc4c3F)c12 [Compound 240] | – | > 3000 | –
18 | CCc1cccc2cc(O)cc(-c3ncc4c(N5CCCCCC5)nc(OC[C@@H]5CC[C@@H](COC(=O)N6CC(Oc7cc([C@H](C(=O)N8C[C@H](O)C[C@H]8C(=O)N[C@@H](C)c8ccc(-c9scnc9C)cc8)C(C)C)on7)C6)N5C)nc4c3F)c12 [Compound 241] | 60 to 80 | < 600 | –
